Measured values published in patent US12344599B2, “Prodigiosin analogs and methods of use” (Institute For Cancer Research, priority 2016, dated 2025).

Legend:
HCT116 p53−/− = test: CellTiterGlo cell viability assay, HCT116 p53−/−; assay type: cell-based; conditions: Homo sapiens, HCT-116, colorectal cancer, p53 null, 72 hours
Experimental: (§1) • 1) Cell lines: HT29, SW480, DLD-1, HCT116, and p53-null HCT116 cells, H1975, MDA-MD-231, U251, FaDu, CAL-27, PANC-1, Aspc-1, and MRC5 were obtained from the ATCC and cultured as recommended. Cells were regularly authenticated by bioluminescence, growth, and morphologic observation. The cells were routinely examined for Mycoplasma and all cell lines underwent STR authentication. • 2) Western blotting: After treatment, protein lysates were collected for Western blot analysis. 15 μg of protein was used for SDS-PAGE. After primary and secondary antibody incubations, the signal was detected by chemiluminescent detection kit, imaged by Syngene (Imgen Technologies). […] The cell viability was assessed by CellTiterGlo bioluminescent cell proliferation assay (Promega), following the manufacturer's protocol. Bioluminescence imaging was measured using the IVIS imager. Percentage of cell viability (mean±SEM) at each dose was calculated against the respective DMSO control. The IC50 values were determined from the sigmoidal dose-response curves using GraphPad Prims4. • 4) Caspase activity assay: Cells were seeded in 96-well plate (1×10^4 cells/well). […] The caspase 3/7 activity was assessed by Caspase-Glo® 3/7 Assay kit (Promega), following the manufacturer's protocol. Bioluminescence imaging was measured using the IVIS imager. […]

ASPC-1 = test: CellTiterGlo cell viability assay, ASPC-1; assay type: cell-based; conditions: Homo sapiens, ASPC1; ASPC-1, pancreatic cancer, p53 frameshift, 72 hours
Experimental: as §1

[1] = test system: SW480, DLD1 and p53-null cell line HCT116; test: CellTiter-Glo luminescent cell viability assay (Example 1); assay type: cell-based, human
Experimental: SW480, DLD-1, DLD1-p73KD, HCT116, and p53-null HCT116, MRC5 and Wi38 cells were seeded at 5,000 cells per well on 96-well plates. […] Then, cells were mixed with an equal volume of CellTiter-Glo® reagents (Promega), following the manufacturer's protocol, and bioluminescence imaging was measured using the IVIS imager.

HT29 cells = test: qRT-PCR of p53 target gene mRNA, HT29; assay type: cell-based, human; conditions: HT29, 1 μM, 8 and 19 hours post-treatment
Experimental: as §1

HT29 tumor xenografts = assay type: in vivo, mouse
Experimental: One million HT29 were implanted subcutaneously in the flanks in each athymic nude mouse (female, 4-6 weeks old). The mice were divided at random into two groups and treated with the vehicle (10% DMSO, 20% Kollipher EL in PBS) and PG3-Oc (5 mg/kg, 3 times/week) by intraperitoneal injection when the tumor masses reached a size of 5 to 6 mm. Subsequently, tumor volumes were measured with a caliper and calculated using V=0.5×Length×Width^2. Twenty three days after treatment, the mice were euthanized and tumors were excised. H & E staining and Immunohistochemistry (IHC) of paraffin-embedded tumor and tissue sections were performed at the Fox Chase Cancer Center Histopathology Facility.
To evaluate the antitumor effects of PG3-Oc in vivo, a human tumor xenograft model was established by subcutaneous injection of human colon cancer cells into nude mice. After the tumor volume reached approximately 50 mm^3, mice were treated by i.p. injection with vehicle or PG3-Oc at 5 mg/kg 3 times weekly for 2 weeks.

[2] = nude mice, 5 mg/kg i.p. 3 times weekly

## CCCCCCCCOC(=O)CCc1c(C)[nH]c(/C=C2\N=C(c3ccc[nH]3)C=C2OC)c1C [PG3-Oc, Octyl (Z)-3-(5-((4′-methoxy-1H,5′H-[2,2′-bipyrrol]-5′-ylidene)methyl)-2,4-dimethyl-1H-pyrrol-3-yl)propanoate]
HCT116 p53−/−
  IC50: 41.1 nM
ASPC-1
  IC50: 39.2 nM
[1]; SW480, DLD1, p53-null HCT116
  induction of cell death: potently induced cell death
[1]; SW480, DLD1, p53-null HCT116, 72 hours
  IC50 values: within nanomolar range
HT29 cells
  induction of p21 mRNA: Over 3 fold
HT29 tumor xenografts; mouse, in vivo, ip, 5 mg/kg
  body weight versus vehicle treatment group: No significant difference
HT29 tumor xenografts; [2]
  Ki-67 expression in tumors as compared with the vehicle group: significantly decreased
  PUMA in tumors as compared with controls: significantly induced
  tumor volume as compared with vehicle-treated mice: significantly reduced
